From patent publication US3989835A, “Method of using 6-substituted amino phenyl-2,3,5,6-tetra-hydro[2,1-b]thiazoles for controlling gastrointestinal nematodes” (American Cyanamid Company, priority 1974, dated 1976)
Where a name gives a salt, the structure may show the parent alone. Read-outs that look alike come from different tables or passages of the source.

Columns and labels:
Nematospiroides dubius = experiment: Anthelmintic efficacy against N. dubius in mice, single oral dose; type: in vivo, Nematospiroides dubius (in albino female mice); conditions: for inhibition in vivo at 20 mg/kg: single oral dose 20 mg./Kg.; for inhibition in vivo at 40 mg/kg: single oral dose 40 mg./Kg.; for inhibition in vivo at 4 mg/kg: single oral dose 4.0 mg./Kg.
Method: Albino female mice are each inoculated with about 20 infectious larvae of Nematospiroides dubius. This nematode is a representative of the economical important trichostrongylis worms of ruminants and other hosts, and of nematodes in general. Twenty-two days after inoculation, groups of four randomly selected mice containing adult N. dubius are given single oral doses of test compounds dissolved or suspended in 0.4 ml. of water per 20 gram mouse. At 26 or 27 days after inoculation, treated mice and in each test four randomly selected groups of untreated mice are necropsied. The number of worms in the small intestine of each mouse are determined by microscopic examination. Average worm numbers for each treated group and for the untreated controls are computed and the percent efficacy determined by the customary formula:
(Average Worms in Control - Average Worms in Treated)/(Average Worms in Control) X 100.

in vivo = conditions: for Approx. LD50 /ED50: chemotherapeutic index, mouse oral, N. dubius
Excerpt: Data on the acute oral toxicity to mice of various single oral doses of the above compounds and several analogs were obtained by conventional procedures, (Table IX hereinafter).

[1] = Heligmosomoides polygyrus, po, as Base, single oral dose, mice, > indicates inactive at dose shown, read-out: Approx. ED50
[2] = Heligmosomoides polygyrus, po, mouse oral, Table IX, read-out: Approx. ED50 vs. N. dubius
[3] = Heligmosomoides polygyrus, po, single oral dose 5.0 mg./Kg., molar-adjusted, read-out: Percent Nematospiroides Activity
[4] = Heligmosomoides polygyrus, po, single oral dose 10 mg./Kg., molar-adjusted, read-out: Percent Nematospiroides Activity
[5] = Heligmosomoides polygyrus, po, molar-adjusted, read-out: Percent Nematospiroides Activity
[6] = mouse, in vivo, po, Approx. LD50, mouse oral, Table IX
[7] = mouse, in vivo, po, LD50, mice, adjusted to molar equivalents of tetramisole free base
[8] = single oral dose 50 Mg./Kg., mice
[9] = single oral dose 100 Mg./Kg., mice
[10] = single oral dose 200 Mg./Kg., mice
[11] = Heligmosomoides polygyrus, po, single oral dose 1.25 mg./Kg., molar-adjusted, read-out: Percent Nematospiroides Activity
[12] = Heligmosomoides polygyrus, po, single oral dose 2.0 mg./Kg., molar-adjusted, read-out: Percent Nematospiroides Activity
[13] = single oral dose 60 Mg./Kg., mice
[14] = single oral dose 80 Mg./Kg., mice
[15] = single oral dose 120 Mg./Kg., mice

Row | SMILES | ED50 (Nematospiroides dubius; [1]) [mg/kg] | ED50 (Nematospiroides dubius; [2]) [mg/kg] | inhibition in vivo at 5 mg/kg (Nematospiroides dubius; [3]) [%] | inhibition in vivo at 10 mg/kg (Nematospiroides dubius; [4]) [%] | inhibition in vivo at 20 mg/kg (Nematospiroides dubius; [5]) [%] | Approx. LD50 /ED50 (in vivo; Table IX) | LD50 (in vivo; [6]) [mg/kg] | LD50 (in vivo; [7]) [mg/kg] | inhibition in vivo at 2 mg/kg (Nematospiroides dubius; [12]) [%] | other results
1 | CC(C)(C)C(=O)Nc1cccc(C2CN3CCSC3=N2)c1 (racemic) [m-NH--CO--C(CH3)3 dl] | 3 | 3 | 75 | 88 | 100 | 33 | 100 | ~100 |  | Dead/Total (in vivo; [8]): 0/6; Dead/Total (in vivo; [9]): 2/6; Dead/Total (in vivo; [10]): 5/6
2 | O=C(Nc1cccc(C2CN3CCSC3=N2)c1)c1ccccc1 (racemic) [m-NH-CO dl] | 1 | 1 | 100 | 100 | 100 | 60 | 60 | ~60 | 94 | inhibition in vivo at 1.25 mg/kg (Nematospiroides dubius; [11]): 67%; Dead/Total (in vivo; single oral dose 40 Mg./Kg., mice): 0/6; Dead/Total (in vivo; [13]): 3/6; Dead/Total (in vivo; [14]): 4/6; Dead/Total (in vivo; [15]): 5/6
3 | CCC(CC)C(=O)Nc1cccc(C2CN3CCSC3=N2)c1 (racemic) [m-NH-CO-CH(C2 H5)2 dl] | 7.5 | 7.5 |  | 85 | 99 | 21 | 160 | ~160 |  | inhibition in vivo at 40 mg/kg (Nematospiroides dubius; [5]): 100%; Dead/Total (in vivo; [14]): 0/6; Dead/Total (in vivo; [15]): 0/6; Dead/Total (in vivo; single oral dose 180 Mg./Kg., mice): 3/6
4 | COC(=O)Nc1cccc(C2CN3CCSC3=N2)c1 (racemic) [m-NH-CO-OCH3 dl, dl-m-(2,3,5,6-tetrahydroimidazo[2,1-b]thiazol-6-yl)carbanilic acid methyl ester, hydrochloride] | 15 | 15 |  | 25 | 96 | 10 | 150 | ~125 |  | inhibition in vivo at 40 mg/kg (Nematospiroides dubius; [5]): 100%; Dead/Total (in vivo; [8]): 0/5; Dead/Total (in vivo; [9]): 0/5; Dead/Total (in vivo; single oral dose 150 Mg./Kg., mice): 3/5; Dead/Total (in vivo; [10]): 5/5
5 | O=CNc1cccc(C2CN3C=CSC3=N2)c1 (stereo not drawn) [5,6-dihydro HNCHO] |  |  |  | 100 |  |  |  | ~150 |  | inhibition in vivo at 4 mg/kg (Nematospiroides dubius; [5]): 64%
6 | Cl.Cl.Nc1cccc(C2CN3C=CSC3=N2)c1 (stereo not drawn) [5,6-dihydro m-NH2 dl, 6-(m-Aminophenyl)-5,6-dihydroimidazo[2,1-b]thiazole dihydrochloride] | 1.5 | 1.5 | 96 | 100 |  |  | 10 | ~80 | 53 | 
7 | O=C(CCl)Nc1cccc(C2CN3CCSC3=N2)c1 (stereo not drawn) [H--N--CO--CH2 Cl] |  |  | 100 |  |  |  |  | 50 to 60 |  | inhibition in vivo at 1.25 mg/kg (Nematospiroides dubius; [11]): 84%; inhibition in vivo at 40 mg/kg (Nematospiroides dubius; [5]): 100%; inhibition in vivo at 50 mg/kg (Nematospiroides dubius; Heligmosomoides polygyrus, po, single oral dose 50 mg./Kg., molar-adjusted, read-out: Percent Nematospiroides Activity): 100%
8 | CC(=O)Nc1cccc(C2CN3CCSC3=N2)c1 (stereo not drawn) [HN--CO--CH3] |  |  |  | 100 |  |  |  | 40 to 60 |  | inhibition in vivo at 4 mg/kg (Nematospiroides dubius; [5]): 66%
9 | CCCCCCC(=O)Nc1cccc(C2CN3CCSC3=N2)c1 (stereo not drawn) [HNCO(CH2)5 CH3] |  |  |  |  |  |  |  |  |  | Percent Nematospiroides Activity (Nematospiroides dubius; single oral dose 1.25 mg./Kg., molar-adjusted): 53%; Percent Nematospiroides Activity (Nematospiroides dubius; single oral dose 2.0 mg./Kg., molar-adjusted): 99%; Percent Nematospiroides Activity (Nematospiroides dubius; single oral dose 5.0 mg./Kg., molar-adjusted): 100%; Percent Nematospiroides Activity (Nematospiroides dubius; single oral dose 10 mg./Kg., molar-adjusted): 100%; LD50 (in vivo; mice, adjusted to molar equivalents of tetramisole free base): 20 to 25 mg/kg
10 | CC(C)(C)CC(=O)Nc1cccc(C2CN3CCSC3=N2)c1 (stereo not drawn) [HNCOCH2 C(CH3)2] |  |  | 59 | 98 |  |  |  | 80 to 100 |  | 
11 | Nc1ccc([N+](=O)[O-])c(C2CN3CCSC3=N2)c1 (stereo not drawn) [R1 =H R4 =NO2] |  | 2 |  | 100 |  | 60 | 120 | 120 to 140 | 43 | ED50 (Nematospiroides dubius; Heligmosomoides polygyrus, po, continuation of Table X (R1/R4 disubstituted), read-out: ED50): 2 mg/kg; inhibition in vivo at 4 mg/kg (Nematospiroides dubius; [5]): 89%; Dead/Total (in vivo; [13]): 0/6; Dead/Total (in vivo; [15]): 2/6; Dead/Total (in vivo; single oral dose 240 Mg./Kg., mice): 6/6
12 | O=C(C=Cc1ccccc1)Nc1cccc(C2CN3CCSC3=N2)c1 (stereo not drawn) [Table XII b1827] |  |  | 100 | 100 |  |  |  | ~90 | 67 | inhibition in vivo at 1.25 mg/kg (Nematospiroides dubius; [11]): 60%
